The values below come from patent US5254801A, “Heterologous dominant conditional lethal gene which is a phosphonate monoester hydrolase and use thereof in plants” (Monsanto Company, priority 1990, dated 1993).

Holding throughout (type): cell-based
In data set [1] the test system is E. coli JM101/vector control. The data set is described as follows: Conditional lethal phenotype test on MOPS minimal plates. From the text:
(§1) The NcoI-BamHI pehA:1 fragment was removed from pMON9420 by restricting the DNA with both enzymes, separating the fragments on an agarose gel, and purifying the pehA fragment from the gel using the GeneClean kit. In a similar manner the BamHI-ClaI pehA:1 fragment was obtained from pMON9421 and both were ligated into an E. coli expression vector to reconstruct the pehA:1 gene behind the RecA promoter with the […] gene 10L leader. The resulting vector, pMON9428 (FIG. 3), was transformed into E. coli strain JM101 using calcium chloride transformation and transformants selected on LB agar with 100 μg/ml spectinomycin. A single colony was isolated and confirmed by restriction mapping to contain pMON9428. The JM101/pMON9428 was then streaked out on LB agar plates containing 100 μg/ml spectinomycin and […] XPP. As a control, JM101 containing the RecA expression vector without the pehA:1 gene was streaked out on the same plate. The JM101/pMON9428 formed blue colonies while the JM101 with the control vector formed white colonies. […] The JM101/pMON9428 and vector control strain were then plated on MOPS minimal medium containing 0.05 mM HK2 PO4 as the phosphate source and 100 μg/ml spectinomycin. […] To test for a conditional lethal phenotype, both strains were streaked side by side on a MOPS minimal plate with 0.05 mM KPO4, 100 μg/ml spectinomycin and 10 mM glyceryl glyphosate. […] To confirm the lethal phenotype was the result of the degradation of the glyceryl glyphosate and subsequent inhibition of aromatic amino acid biosynthesis by glyphosate, both E. coli strains were plated on MOPS minimal medium with 0.05 mM KPO4, 100 μg/ml spectinomycin, 10 mM glyceryl glyphosate and supplemented with aromatic compounds consisting of L-tyrosine, L-tryptophan, L-phenylalanine, each at 100 μg/ml, 2,3 -dihydroxybenzoicacid and para-aminobenzoic acid, each at 5 μg/ml. […] This confirmed that the conditional lethal phenotype observed in the presence of the glyceryl glyphosate was the result of its conversion to and subsequent inhibition of EPSPS by glyphosate.

The test system of data set [2] is E. coli JM101/pMON9428 (pehA:1). The description is as above.
Text: as §1

For data set [3], the system named is T12. Put plainly: Growth on glyceryl glyphosate as sole phosphate source. As to conditions: strain T12; 0.2 mM in DF minimal medium. How it is done: (§2) Bacteria capable of degrading glyphosate are known (Hallas et al., 1988; Malik et al., 1989; and Moore et al., 1983; Heitkamp et al., 1990). Five of these bacteria (PG2482, LBAA, T10, T12 and CP4) and four strains of E. coli were screened for the rapid degradation of glyceryl glyphosate into inorganic phosphate. The bacteria were inoculated into 2 ml Dworkin-Foster(DF) minimal medium containing glucose, sodium gluconate and potassium citrate (each 0.1%) as carbon source and containing 0.2 mM glyceryl glyphosate as a phosphate source. The Dworkin-Foster minimal medium was made by combining 1 liter sterile H2 O with 1 ml each of A, B, C, E and F, 10 ml D, C-sources to final concentration of 0.1% each and P-source to 0.2 mM.
(§3) Bacteria which grew in this medium using glyceryl glyphosate as a sole phosphate source had the ability to cleave both the ester and the phosphonate bond to release the free phosphate. For these bacteria to be useful in the present invention, the first step in the mineralization of glyceryl glyphosate needed is the hydrolysis of the phosphonate ester. Each of the three bacteria which utilized glyceryl glyphosate as a phosphate source were then assayed for a phosphonate monoester hydrolase activity using an in vivo (3-^14 C-) glyceryl glyphosate assay. A 150 ml culture of each bacteria was grown in DF minimal medium with 0.2 mM HK2 PO4 as a phosphate source in a 500 ml flask, 30° C., with shaking. The bacteria were pelleted by centrifugation at 5,000×g for 10 min and resuspended at 10 mg fresh weight/ml. An assay mix included 50 μl cells plus 10 μl (3-^14 C-) glyceryl glyphosate (10,000 cpm/μl) and kept at 30° C. with shaking. After a three hour incubation period, the cells were pelleted in a microfuge and the supernatant injected onto an HPLC anion exchange column and glyphosate analyzed as described above. The pellet was washed twice with 1 ml 10 mM HEPES, pH 7.0, and resuspended in 25 μl buffer. The cells were lysed with 25 μl quench and the debris pelleted in a microfuge. The pellet extract was then analyzed for glyphosate product as described above. Glyphosate was found in the pellet extracts of these three bacteria indicating the presence of a phosphonate monoester hydrolase activity in these organisms.

Data set [4] relates to CP4. Described as above. The following applies: strain CP4; 0.2 mM in DF minimal medium. On the procedure: as §2, §3
In data set [5] the test system is LBAA. Described as above. The following applies: strain LBAA; 0.2 mM in DF minimal medium. How it is done:
as §2, §3

Data set [6] relates to E. coli MM294, JM101, JM101/MPU+, SR200/MPU. The description is as above. The following applies: E. coli strains; 0.2 mM in DF minimal medium. How it is done:
as §2, §3

Data set [7] deals with T10. The data set is described as above. As to conditions: strain T10; 0.2 mM in DF minimal medium. How it is done:
as §2, §3

Data set [8] relates to LBAA. The data set is described as follows: In vivo (3-14C-) glyceryl glyphosate hydrolysis assay in whole cells. As to conditions: strain LBAA; three hour incubation, 30° C. How it is done:
as §3, with “Glyphosate was found in the pellet extracts of these three bacteria indicating the presence of a phosphonate monoester hydrolase activity in these organisms.” left out

In data set [9] the test system is T10. The data set is described as above. As to conditions: strain T10; three hour incubation, 30° C. On the procedure: as §3, with “Glyphosate was found in the pellet extracts of these three bacteria indicating the presence of a phosphonate monoester hydrolase activity in these organisms.” left out

For the molecule `O=C(O)CNCP(=O)(O)OCC(O)CO` (centres unmarked) [glyceryl glyphosate, glycine, N-([hydroxy (2,3 dihydroxy propoxy)phosphonyl]methyl)], the “Colony formation with aromatic compound supplement” value is “formed colonies” in data set [1] (10 mM glyceryl glyphosate plus L-tyrosine, L-tryptophan, L-phenylalanine, 2,3-dihydroxybenzoic acid, para-aminobenzoic acid, vector control strain) and “formed colonies” in data set [2] (10 mM glyceryl glyphosate plus L-tyrosine, L-tryptophan, L-phenylalanine, 2,3-dihydroxybenzoic acid, para-aminobenzoic acid). In data set [1] (10 mM glyceryl glyphosate, MOPS minimal plate, JM101/vector control), the “Toxicity (colony formation)” value is “non-toxic”. Also, in [2] (10 mM glyceryl glyphosate, MOPS minimal plate), the “Colony formation (lethal phenotype)” value was “did not form visible colonies”. The “Glyceryl Glyphosate as Phosphate Source” value in data set [3] is “No”; in data set [4], “No”; in [5], “Yes”; in data set [6] it was “No”; in data set [7] it was “Yes”. Further, the “In vivo Hydrolysis of Glyceryl Glyphosate into Glyphosate” value in [8] and in data set [9] was “Yes” throughout.
